Test [1] concerns the target T1, Fructose-1,6-bisphosphatase 1 (Rattus norvegicus, UniProt P19112).
T1 sequence (P19112 whole entry): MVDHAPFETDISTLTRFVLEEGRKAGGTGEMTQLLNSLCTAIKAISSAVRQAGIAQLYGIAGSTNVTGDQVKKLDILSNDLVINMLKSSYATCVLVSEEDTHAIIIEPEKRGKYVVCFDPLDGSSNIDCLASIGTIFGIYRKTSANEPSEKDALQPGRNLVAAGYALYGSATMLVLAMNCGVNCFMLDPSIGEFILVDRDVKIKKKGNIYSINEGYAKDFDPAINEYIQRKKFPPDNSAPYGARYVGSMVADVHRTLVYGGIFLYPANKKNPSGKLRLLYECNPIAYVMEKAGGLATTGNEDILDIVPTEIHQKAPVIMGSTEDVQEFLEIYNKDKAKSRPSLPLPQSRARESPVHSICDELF
Description: Inhibition of rat liver FBPase 1.

Test [2] has as its system Hepatocyte. Description: cells. As to conditions: Rattus norvegicus.
Description: Inhibition of glucose production in rat primary hepatocytes
Test [3] deals with T2, Fructose-1,6-bisphosphatase 1 (Homo sapiens, UniProt P09467).
T2 sequence (P09467 whole entry): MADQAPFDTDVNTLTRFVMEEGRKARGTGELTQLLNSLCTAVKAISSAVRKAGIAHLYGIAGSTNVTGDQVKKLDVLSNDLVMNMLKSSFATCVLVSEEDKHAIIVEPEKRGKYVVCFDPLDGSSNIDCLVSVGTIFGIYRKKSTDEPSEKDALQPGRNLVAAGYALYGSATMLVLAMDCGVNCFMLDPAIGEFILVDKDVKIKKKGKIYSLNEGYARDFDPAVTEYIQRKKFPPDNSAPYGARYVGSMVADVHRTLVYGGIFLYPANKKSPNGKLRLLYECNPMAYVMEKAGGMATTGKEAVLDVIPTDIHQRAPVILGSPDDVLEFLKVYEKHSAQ
Description: Inhibition of human liver FBPase 1.

23 compounds from ChEMBL document CHEMBL1156817, “Fructose-1,6-bisphosphatase Inhibitors. 2. Design, synthesis, and structure-activity relationship of a series of phosphonic acid containing benzimidazoles that function as 5'-adenosinemonophosphate (AMP) mimics” (J Med Chem, 2010) can be followed below.

In the case of `Nc1cccc2c1nc(-c1ccc(P(=O)(O)O)o1)n2CC12CCC(CC1)C2`, the IC50 in test [1] is 2 µM; in test [2], 25 µM; in test [3], 1 µM.
The matching figures for `Cn1c(-c2ccc(P(=O)(O)O)o2)nc2c(N)cccc21`: 20 µM, 100 µM and 6 µM.
The matching figures for `CC(C)(C)c1ccc(Cn2c(-c3ccc(P(=O)(O)O)o3)nc3c(N)cccc32)cc1`: 20 µM, 100 µM and 9.5 µM.
`CC(C)Cn1c(-c2ccc(P(=O)(O)O)o2)nc2c(N)c(F)cc(Cl)c21`: the IC50 in test [1] worked out at 2 µM; in test [3] it was 0.1 µM.
Turning to `CC(C)Cn1c(-c2ccc(P(=O)(O)O)o2)nc2c(N)cccc21`, the values for the IC50 in test [1], in test [2] and in test [3] were 4 µM, 20 µM and 1.5 µM, respectively.
The matching figures for `CC(C)Cn1c(-c2ccc(P(=O)(O)O)o2)nc2c(N)c(Br)cc(Br)c21`: 2 µM, 14 µM and 1 µM.
For the compound `CCn1c(-c2ccc(P(=O)(O)O)o2)nc2c(N)cccc21`, the IC50 in test [1] was determined as 40 µM; in test [3], 2.25 µM.
Take `CC(C)CCCc1cc(F)c(N)c2nc(-c3ccc(P(=O)(O)O)o3)n(CC(C)C)c12`: the IC50 was 2.1 µM in test [1], 23 µM in test [2] and 0.1 µM in test [3].
The matching figures for `Nc1cccc2c1nc(-c1ccc(P(=O)(O)O)o1)n2Cc1ccccc1`: 20 µM, 100 µM and 5 µM.
The matching figures for `CC(C)Cn1c(-c2ccc(P(=O)(O)O)o2)nc2c(N)c(F)ccc21`: 2.28 µM, 2.4 µM and 0.1 µM.
The matching figures for `C=Cc1cc(F)c(N)c2nc(-c3ccc(P(=O)(O)O)o3)n(CC(C)C)c12`: 0.9 µM, 25 µM and 0.28 µM.
`CC(C)Cn1c(-c2ccc(P(=O)(O)O)o2)nc2c(N)c(F)c(Cl)cc21`: the IC50 is 2 µM in test [1], 16 µM in test [2] and 0.225 µM in test [3].
The matching figures for `CC(C)Cn1c(-c2ccc(P(=O)(O)O)o2)nc2c(N)ccc(Br)c21`: 2 µM, 14 µM and 0.4 µM.
The matching figures for `CC(C)Cn1c(-c2ccc(P(=O)(O)O)o2)nc2c(N)ccc(Cl)c21`: 2 µM, 24 µM and 0.9 µM.
As to `CC(C)Cn1c(-c2ccc(P(=O)(O)O)o2)nc2c(N)c(F)cc(-c3ccc(Cl)cc3)c21`, the figures for the IC50 in test [1], in test [2] and in test [3] were 2 µM, above 25 µM and 0.09 µM, respectively.
The matching figures for `CCCn1c(-c2ccc(P(=O)(O)O)o2)nc2c(N)cccc21`: 2 µM, 37 µM and 1.1 µM.
With `Nc1c(F)ccc2c1nc(-c1ccc(P(=O)(O)O)o1)n2CC1CC1`, the figures for the IC50 in test [1] and in test [2] were 2.18 µM and 3.3 µM, respectively.
For the compound `Nc1cccc2c1nc(-c1ccc(P(=O)(O)O)o1)n2Cc1ccoc1`, the figures for the IC50 in test [1], in test [2] and in test [3] were 20 µM, 100 µM and 4.2 µM, respectively.
As for `CC(C)Cn1c(-c2ccc(P(=O)(O)O)o2)nc2c(N)c(Br)ccc21`, the IC50 was 14 µM in test [2] and 0.4 µM in test [3].
Turning to `Nc1cccc2c1nc(-c1ccc(P(=O)(O)O)o1)n2Cc1ccc(C(F)(F)F)cc1`, the figures for the IC50 in test [1], in test [2] and in test [3] were 20 µM, 100 µM and 7 µM, respectively.
With `Nc1cccc2c1nc(-c1ccc(P(=O)(O)O)o1)n2Cc1ccsc1`, the results for the IC50 in test [1], in test [2] and in test [3] were 20 µM, 100 µM and 4 µM, respectively.
`CC(C)Cn1c(-c2ccc(P(=O)(O)O)o2)nc2c(N)c(Br)c(Cl)c(Cl)c21` came in with an IC50 in test [3] of 10 µM.
As for `CCc1ccc2c(nc(-c3ccc(P(=O)(O)O)o3)n2CC(C)C)c1N`, the values for the IC50 in test [1], in test [2] and in test [3] were 20 µM, 50 µM and 2.5 µM, respectively.
